Drawing on patent publication US10287276B2, “Heteroaryl-1,2,4-triazole and heteroaryl-tetrazole compounds for controlling ectoparasites” (Elanco Tiergesundheit AG, priority 2016, dated 2019), this text covers pest or weed control and EC50 for 18 compounds.

A value given as a limit tells only on which side of the number the result lay.

The test system of assay [1] is Rhipicephalus sanguineus (Dog Tick). As to the kind of experiment: Activity in vitro against Rhipicephalus sanguineus (dog tick), Assay B, coated glass vials. The following applies: contact with coated vials, assessment at 48 hours; for pest or weed control at 20 ppm: Rhipicephalus sanguineus, read-out: efficacy (EC50). On the procedure: Activity In Vitro Against Rhipicephalus sanguineus (Dog Tick)—Assay B
A solution of the test compounds is used to coat the inner wall of glass vials containing a filter paper on the bottom of each vial. A second filter paper is also coated and placed in the cap of the vial. Vials and caps are allowed to dry overnight. Each treated vial is infested with ticks. Contact of the ticks with residues is induced by holding the vials in a controlled environment and assessment is performed at 48 hours after application in comparison with untreated glass vials and solvent-treated glass vials.

For assay [2], the system named is Ctenocephalides Felis (Cat Flea). Kind of assay: Activity in vitro against Ctenocephalides felis (cat flea), Assay B. The following applies: % mortality at 48 hours post infestation; for pest or weed control at 10 ppm: Ctenocephalides felis, at 10 ppm in bovine blood, read-out: efficacy (EC50). On the procedure:
Activity In Vitro Against Ctenocephalides Felis (Cat Flea)—Assay B
Test compounds are added to organic bovine blood contained in an artificial feeding container. Compounds with known insecticidal activity are included to serve as positive controls. Newly emerged unfed adult fleas from a laboratory colony are aspirated into each vial. The test cages are maintained using the artificial feeding apparatus to allow ingestion of compound. Fleas are evaluated for % mortality at 48 hours post infestation. Fleas showing normal movement and/or jumping ability are considered viable and those showing no movement are scored as dead.

The test system of assay [3] is Lucilla Cuprina (Australian Sheep Blowfly). As to the kind of experiment: Activity in vitro against Lucilla cuprina (Australian sheep blowfly), Assay B. As to conditions: larvae, percent mortality at 24 hours; for pest or weed control at 10 ppm: Lucilia cuprina, compound in bovine serum, read-out: efficacy (EC50). Also noted: species or system L. cuprina. On the procedure:
Activity In Vitro Against Lucilla Cuprina (Australian Sheep Blowfly)—Assay B
Compound formulated in bovine serum is dispensed into scintillation. A dental cotton roll is added to each vial to absorb the compound solution. L. cuprina larvae are added to each treatment vial. The vials are capped and held for 24 hours in an environmental chamber at appropriate temperature, humidity and light/dark cycles. Evaluations are only made at 24 hours because dead larvae after 24 hours may be cannibalized by the remaining live ones. Vials are examined for percent mortality.

On to `C[C@@H](c1ncnn1-c1ncccn1)N(CC1CC1)C(=S)c1cc(C(F)(F)F)cc(C(F)(F)F)c1` [Example 70], for which the pest or weed control at 20 ppm in assay [1] is more than 50%. The pest or weed control at 10 ppm in assay [2] and in assay [3] was more than 50% throughout.

Consider `C#CCN(C(=O)c1cc(C#N)cc(C(F)(F)F)c1)C(C)c1ncnn1-c1ncccn1` (centres unmarked) [Example 58, 3-Cyano-N-prop-2-ynyl-N-[1-(2-pyrimidin-2-yl-1,2,4-triazol-3-yl)ethyl]-5-(trifluoromethyl)benzamide], for which the pest or weed control at 20 ppm in assay [1] was more than 50%. In addition, the pest or weed control at 10 ppm in assay [2] and in assay [3] was more than 50% each time.

For `C[C@H](NC(=O)c1cc(C(F)(F)F)cc(C(F)(F)F)c1)c1ncnn1-c1ncc(F)cn1` [Example 69, N-[(1S)-1-[2-(5-Fluoropyrimidin-2-yl)-1,2,4-triazol-3-yl]ethyl]-3,5-bis(trifluoromethyl)benzamide], the pest or weed control at 20 ppm in assay [1] was more than 50%. Also, the pest or weed control at 10 ppm in assay [2] and in assay [3] was more than 50% throughout.

As to `Cc1nc(C(C)N(CC2CC2)C(=O)c2cc(C(F)(F)F)cc(C(F)(F)F)c2)n(-c2ncccn2)n1` (centres unmarked) [Example 61, N-(Cyclopropylmethyl)-N-[1-(5-methyl-2-pyrimidin-2-yl-1,2,4-triazol-3-yl)ethyl]-3,5-bis(trifluoromethyl)benzamide], the pest or weed control at 20 ppm in assay [1] is more than 50%. Moreover, the pest or weed control at 10 ppm in assay [2] and in assay [3] was more than 50% throughout.

Turning to `CCN(C(=O)c1cc(C#N)cc(C(F)(F)F)c1)C(C)c1ncnn1-c1ncccn1` (centres unmarked) [Example 59, 3-Cyano-N-ethyl-N-[1-(2-pyrimidin-2-yl-1,2,4-triazol-3-yl)ethyl]-5-(trifluoromethyl)benzamide], in assay [1], the pest or weed control at 20 ppm was more than 50% and the EC50 is 14 ppm. Further, in assay [2], the EC50 is reported as 1.6 ppm and the pest or weed control at 10 ppm is more than 50%. Besides, in assay [3], the pest or weed control at 10 ppm is more than 50% and the EC50 was 0.77 ppm.

With `CCOC(OCC)c1nc(C(C)NC(=O)c2cc(C(F)(F)F)cc(C(F)(F)F)c2)n(-c2ncccn2)n1` (centres unmarked) [Example 73, N-[1-[5-(Diethoxymethyl)-2-pyrimidin-2-yl-1,2,4-triazol-3-yl]ethyl]-3,5-bis(trifluoromethyl)benzamide], in assay [1], the pest or weed control at 20 ppm was more than 50%. The pest or weed control at 10 ppm in assay [2] was more than 50%.

Turning to `COC(=O)c1nc(C(C)NC(=O)c2cc(C(F)(F)F)cc(C(F)(F)F)c2)n(-c2ncccn2)n1` (centres unmarked) [Example 74, Methyl 5-[1-[[3,5-bis(trifluoromethyl)benzoyl]amino]ethyl]-1-pyrimidin-2-yl-1,2,4-triazole-3-carboxylate], the pest or weed control at 20 ppm in assay [1] is more than 50%.

Consider `C#CCN(C(=O)c1cccc(C#N)c1)C(C)c1ncnn1-c1ncccn1` (centres unmarked) [Example 54, 3-Cyano-N-prop-2-ynyl-N-[1-(2-pyrimidin-2-yl-1,2,4-triazol-3-yl)ethyl]benzamide], for which the pest or weed control at 20 ppm in assay [1] is more than 50%. The pest or weed control at 10 ppm in assay [2] was more than 50%.

Regarding `CC(c1ncnn1-c1ncccn1)N(CC1CC1)C(=O)c1cc(Br)cc(C(F)(F)F)c1` (centres unmarked) [Example 62, 3-Bromo-N-(cyclopropylmethyl)-N-[1-(2-pyrimidin-2-yl-1,2,4-triazol-3-yl)ethyl]-5-(trifluoromethyl)benzamide], the pest or weed control at 20 ppm in assay [1] was more than 50%. Further, the pest or weed control at 10 ppm in assay [3] is more than 50%.

As for `CC(c1ncnn1-c1ncccn1)N(C)C(=O)c1cccc(C#N)c1` (centres unmarked) [Example 55, 3-Cyano-N-methyl-N-[1-(2-pyrimidin-2-yl-1,2,4-triazol-3-yl)ethyl]benzamide], in assay [1], the pest or weed control at 20 ppm was more than 50%. In addition, the pest or weed control at 10 ppm in assay [2] was more than 50%.

In the case of `C[C@@H](c1ncnn1-c1ncccn1)N(C)C(=O)c1cc(C(F)(F)F)cc(C(F)(F)F)c1` [Example 75, N-Methyl-N-[(1S)-1-(2-pyrimidin-2-yl-1,2,4-triazol-3-yl)ethyl]-3,5-bis(trifluoromethyl)benzamide], the pest or weed control at 20 ppm in assay [1] is more than 50%. Moreover, the pest or weed control at 10 ppm in assay [2] and in assay [3] was more than 50% throughout.

Regarding `CC(NC(=O)c1cc(C(F)(F)F)cc(C(F)(F)F)c1)c1ncnn1-c1ncccn1` (centres unmarked) [Example 63, N-[1-(2-Pyrimidin-2-yl-1,2,4-triazol-3-yl)ethyl]-3,5-bis(trifluoromethyl)benzamide], in assay [1], the pest or weed control at 20 ppm is more than 50%. Besides, the pest or weed control at 10 ppm in assay [2] and in assay [3] was more than 50% in each case.

As to `CC(c1ncnn1-c1ncccn1)N(CC1CC1)C(=O)c1cc(C#N)cc(C(F)(F)F)c1` (centres unmarked) [Example 50, 3-Cyano-N-(cyclopropylmethyl)-N-[1-(2-pyrimidin-2-yl-1,2,4-triazol-3-yl)ethyl]-5-(trifluoromethyl)benzamide], the pest or weed control at 20 ppm in assay [1] is more than 50%. Besides, the pest or weed control at 10 ppm in assay [2] and in assay [3] was more than 50% throughout.

For the compound `CC(c1ncnn1-c1ncccn1)N(C)C(=O)c1cc(C#N)cc(C(F)(F)F)c1` (centres unmarked) [Example 60, 3-Cyano-N-methyl-N-[1-(2-pyrimidin-2-yl-1,2,4-triazol-3-yl)ethyl]-5-(trifluoromethyl)benzamide], the pest or weed control at 20 ppm in assay [1] was more than 50%. Besides, the pest or weed control at 10 ppm in assay [2] and in assay [3] was more than 50% each time.

On to `CC(c1ncnn1-c1ncccn1)N(CC#N)C(=O)c1cc(C(F)(F)F)cc(C(F)(F)F)c1` (centres unmarked) [Example 56, N-(Cyanomethyl)-N-[1-(2-pyrimidin-2-yl-1,2,4-triazol-3-yl)ethyl]-3,5-bis(trifluoromethyl)benzamide], for which the pest or weed control at 10 ppm in assay [2] and in assay [3] was more than 50% each time.

As for `C[C@H](NC(=O)c1cccc(C#N)c1)c1ncnn1-c1ncc(F)cn1` [Example 68, 3-Cyano-N-[(1S)-1-[2-(5-fluoropyrimidin-2-yl)-1,2,4-triazol-3-yl]ethyl]benzamide], in assay [1], the pest or weed control at 20 ppm was more than 50%. Further, the pest or weed control at 10 ppm in assay [2] and in assay [3] was more than 50% in each case.

As for `CC(c1ncnn1-c1ncccn1)N(C[Si](C)(C)C)C(=O)c1cc(C(F)(F)F)cc(C(F)(F)F)c1` (centres unmarked) [Example 67, N-[1-(2-pyrimidin-2-yl-1,2,4-triazol-3-yl)ethyl]-3,5-bis(trifluoromethyl)-N-(trimethylsilylmethyl)benzamide], the pest or weed control at 20 ppm in assay [1] was more than 50%. The pest or weed control at 10 ppm in assay [2] and in assay [3] was more than 50% each time.

For `CC(c1ncnn1-c1ncccn1)N(C)C(=O)c1cc(C(F)(F)F)cc(C(F)(F)F)c1` (centres unmarked) [Example 65, N-Methyl-N-[1-(2-pyrimidin-2-yl-1,2,4-triazol-3-yl)ethyl]-3,5-bis(trifluoromethyl)benzamide], the pest or weed control at 20 ppm in assay [1] is more than 50%. For the same compound, the pest or weed control at 10 ppm in assay [2] and in assay [3] was more than 50% in each case.
